# Measured values as given in patent US20060052459A1, “Antifungal medicaments comprising arylamidine derivatives” (priority 2002, published 2006).
# Tests used:
# [1] = test system: Aspergillus fumigatus strain IP 864.64; experiment: In vitro antifungal growth inhibition on microtitre plates (optical density 590 nm), compounds alone or as mixtures (Wadley method); type: cell-based; conditions: second study
# Method: (§1) The following fungi were used for this study: Candida albicans strains IP 48.72 (ATCC 10231) and Aspergillus fumigatus strain IP 864.64 obtained from the Collection Nationale de Cultures de Microorganismes (CNCM) of the Institut Pasteur. The strains are cultured on Yeast Extract-Peptone-Dextrose (YEPD) agar medium comprising 0.5% yeast extract, 0.5% bactopeptone, 2% glucose and 2% agar at 30° C. and in the dark.
# (§2) All these compounds were prepared in a DMSO solution at a final concentration of 100 mg/ml. The stock solutions are stored at −20° C. up to the time of use.
# (§3) The trials are carried out in RPMI 1640 medium with no sodium bicarbonate, but with L-glutamine buffered with 0.165 mol per litre of 3-[N-morpholino]propanesulphonic acid (MOPS), enriched (<>) or otherwise (<>) with 2% glucose. The pH of this medium is adjusted to 7.0. The medium is sterilized by filtration (0.22 μm) and stored at 4° C. up to the time of use.
# (§4) All the antifungal tests are carried out on microtitre plates. The initial suspensions of spores are prepared in a sterile solution containing 0.85% NaCl, supplemented with Tween 80 at 0.01%. These initial suspensions are then diluted in the culture medium (RPMI 1640 enriched or otherwise with 2% glucose) to a final concentration of 10^4 spores per ml. The measurements of viability of each inoculum are verified by subcultures of a volume of 300 μl on YEPD agar medium.
# (§5) The antifungal compounds are tested in a range of concentrations ranging from 0.026 to 100 μg of active ingredient/ml. These antifungal compounds are then diluted in RPMI 1640 medium enriched or otherwise with 2% glucose. A final DMSO concentration of 0.2% is used throughout the measurements. Each trial is carried out on a series of dilutions of antifungal compounds, in duplicate. The antifungal dilutions (0.1 ml) and the fungal inoculum (0.1 ml) are added to each of the wells of the microtitre plate. The plates are then read with a spectrophotometer (ELX 800UV Bio-Tek Instruments, Inc) at a wavelength of 590 nm. The plates are read immediately after (t=0) and after 48 hours' incubation at 30° C. and in the dark. The optical density values obtained are correlated with fungal growth between the times t=0 and t=48 hours. The optical density values are used to calculate the percentage inhibition of growth for each concentration of antifungals by comparison with the control. The values are then used to plot a dose-response curve and the EC50 value is determined for each fungus and each compound with the aid of the Grafit 5.0® software (Erithacus software Ltd).
# (§6) The method which was used to measure the type of interaction existing between the antifungal compounds in the form of mixtures is the Wadley method.
# (§7) In the Wadley approach, the dose-response curve for each of the compounds A and B, and for the mixture AB, is constructed. The EC50 is calculated for each compound taken individually and for the mixture. If a and b are the absolute quantities of the compounds A and B in the mixture (a=1, b=1, a+b=2 under our conditions), the expected effective concentration (EC50exp) may be calculated in the following manner: EC50exp=(a+b)/[a/EC50A)+b/(EC50B)
# (§8) The Wadley approach may be used to estimate the type of interaction existing between the fungal compounds, regardless of their concentration. Its reliability is not dependent on the percentage inhibition. The type of interaction between two compounds is given by the level of interaction (LI) which corresponds to the ratio between the expected effective concentration (EC50exp) and that observed (EC50obs) of the mixture. The nature of the interaction obtained by the Wadley formula is presented in Table 1 (see U. Gisi, Synergistic interaction in fungicide mixtures, 1996. Phytopathology 86, 1273-1279) below.
# (§9) The experimental conditions are the same as previously described.
# [2] = test system: Candida albicans strains IP 48.72 (ATCC 10231); experiment: as above; type: cell-based; conditions: second study
# Method: as §1, §2, §3, §4, §5, §6, §7, §8, §9
structure (smiles),measurement,setting,value
"CCN(C)C=Nc1cc(C)c(Oc2ccc(C#N)c(C(F)(F)F)c2)cc1C [Compound I.2, N-ethyl-N-methyl-N′-[4-(4-cyano-3-trifluoromethylphenoxy)-2,5-dimethylphenyl]imidoformamide]",EC50,"[1]; Aspergillus fumigatus, IP864.64, 48 h, strain IP 864.64, RPMI 1640 medium enriched with 2% glucose, 48 hours at 30° C., read-out: EC50",0.088 µg/mL
same,efficacy in vitro compared with compounds I.1 and II.2,[1]; enriched medium,twice higher
same,EC50,"[2]; Candida albicans, ATCC10231, 48 h, strain IP 48.72, RPMI 1640 medium enriched with 2% glucose, 48 hours at 30° C., read-out: EC50",0.205 µg/mL
same,efficacy in vitro compared with compounds I.1 and II.1,[2]; enriched medium,better efficacy
